Measurements: patent publication US20250326708A1, “LONG-ACTING SPLEEN-TARGETING CATIONIC LIPID COMPOUND COMPRISING BENZENE RING STRUCTURE, COMPOSITION COMPRISING SAME, AND USE THEREOF” (Beijing Youcarekechuang Pharmaceutical Technology Co., Ltd., priority 2024, published 2025)
Values joined by “and” are separate entries in the source; they are usually repeats but may differ in a detail not shown here. Equal values may be shown once.

Experiments:
[1] = system: female BALB/C mice; assay: Expression of delivered mRNA in mice in vivo (IVIS in vivo imaging); settings: 10 μg Fluc-mRNA via tail vein
Description: LNP preparations containing 10 μg of Fluc-mRNA were injected via the tail vein into female BALB/C mice (4 to 6 weeks old, weighing 17 to 19 g). At specified time points after administration (6 h, 24 h, 48 h, and 7 d), the mice were intraperitoneally injected with fluorescent imaging substrates and allowed to move freely for 5 minutes. The average radiation intensity (corresponding to fluorescence intensity) of proteins expressed by the mRNA delivered by the LNP preparations in the mice in vivo was then detected using the IVIS Spectrum small-animal in vivo imaging system.

[2] = system: female BALB/C mice; assay: Expression of delivered mRNA in different organs of mice (organ imaging); assay type: in vivo; settings: for Average radiation intensity of mouse organs: Heart / Average radiation intensity of mouse organs: Kidney / Average radiation intensity of mouse organs: Liver / Average radiation intensity of mouse organs: Lung / Average radiation intensity of mouse organs: Lymph / Average radiation intensity of mouse organs: Spleen: 6 hours after 5 μg Fluc-mRNA subcutaneously
Description: LNP preparations containing 5 μg of Fluc-mRNA were subcutaneously injected into female BALB/C mice (4 to 6 weeks old, weighing 17 to 19 g). At specified time points after administration (6 h), the mice were intraperitoneally injected with fluorescent imaging substrates and allowed to move freely for 5 minutes. The average radiation intensity (corresponding to fluorescence intensity) of proteins expressed by the mRNA delivered by the LNP preparations in the mice in vivo was then detected using the IVIS Spectrum small-animal in vivo imaging system. After sampling, the mice were killed by cervical dislocation and dissected, and the internal organs: heart, liver, spleen, lung, kidney, and lymph of mice were accurately isolated. The average radiation intensity (corresponding to fluorescence intensity) of proteins expressed by the mRNA delivered by the LNP preparations in various organs of mice was then detected using the IVIS Spectrum small-animal in vivo imaging system.

[3] = system: 293T cells; assay: Fluorescence detection of Fluc-mRNA (transfection efficiency) of LNP preparations; assay type: cell-based
Description: (§1) Cell recovery and passage: 293T cells were recovered and cultured in culture dishes. The cells were passaged until the required number of cells was obtained.
(§2) Seeding plates: The cells in culture dishes were digested and counted, then seeded in a 96-well plate at 10,000 cells per well and seeded in a 12-well plate at 150,000 cells per well. The cells were cultured overnight until cell adhesion.
(§3) The cationic lipids listed in Table 2 were each mixed with DSPC (AVT (Shanghai) Pharmaceutical Technology Co., Ltd.), cholesterol (AVT (Shanghai) Pharmaceutical Technology Co., Ltd.), and DMG-PEG2000 in a molar ratio of 49:10:39.5:1.5 and dissolved in ethanol to prepare ethanol lipid solutions. Using the ethanol injection method, the ethanol lipid solutions were quickly added to a citrate buffer (pH between 4 and 5), and vortexed for 30 seconds for later use. eGFP-mRNA (purchased from Shanghai BioHub Biotechnology Co., Ltd.), Fluc-mRNA (purchased from Shanghai BioHub Biotechnology Co., Ltd.), or Cy5 fluorescently labeled Leqvio (purchased from Sangon Biotech (Shanghai) Co., Ltd.) was diluted in a citrate buffer (pH between 4 and 5) to obtain an mRNA aqueous solution. A certain volume of the lipid solution and the mRNA aqueous solution were mixed to prepare liposomes at a total lipid-to-mRNA weight ratio of 15:1. The mixtures were sonicated at 25° C. for 15 minutes (ultrasonic frequency: 40 kHz, ultrasonic power: 800 W). The resulting liposomes were diluted 10-fold with PBS, followed by ultrafiltration using a 300 kDa ultrafiltration tube to remove ethanol. After adjusting the volume with PBS, LNP preparations encapsulating eGFP-mRNA or Fluc-mRNA were obtained, using cationic lipids, DSPC, cholesterol, and DMG-PEG2000 at a molar ratio of 49:10:39.5:1.5.
(§4) Cell recovery and passage: The method was the same as described in Example 3.
(§5) Seeding plates: The method was the same as described in Example 3.
LNP preparations containing 0.3 μg of Fluc-mRNA (with the vector components of the LNP preparations of cationic lipids, DSPC, cholesterol, and DMG-PEG2000 in a molar ratio of 49:10:39.5:1.5, where the cationic lipids are those listed in Table 1) were added to the cell culture medium in a 96-well plate. After 24 hours of continued culture, the corresponding reagents were added according to the instructions in the Gaussia Luciferase Assay Kit. Fluorescence intensity in each well was detected using the IVIS fluorescence detection system. The transfection efficiency of LNP preparations prepared with a series of cationic lipid compounds designed in the present disclosure, as well as cationic lipids from the prior art, including SM-102, HHMA, MC3, compound 7, and I-1, is shown in Table 4.

[4] = system: 293T cells; assay: Cell viability assay (CCK-8) with LNP preparations of Fluc-mRNA; assay type: cell-based; settings: for Cell viability: LNP with 1.5 μg Fluc-mRNA, 24 hours, CCK-8
Description: as §1, §2, §3, §4, §5
LNP preparations containing 1.5 μg of Fluc-mRNA (with the vector components of the LNP preparations of cationic lipids, DSPC, cholesterol, and DMG-PEG2000 in a molar ratio of 49:10:39.5:1.5, where the cationic lipids are those listed in Table 1) were added to the cell culture medium in a 96-well plate. After 24 hours of continued culture, 10 μL of CCK-8 solution was added to each well, and the culture plate was incubated in an incubator for 1 hour.

[5] = Particle size and polydispersity index (PDI) of lipid nanoparticles, dynamic light scattering; assay type: physicochemical; settings: LNP preparation with the named cationic lipid; 90° scattering angle, 25° C
Text: as §3
The particle size and polydispersity index (PDI) were measured using dynamic light scattering with a Malvern laser diffraction particle size analyzer.
10 μL of liposome solution was diluted to 1 mL with RNase-free deionized water and added to the sample cell. Each sample was measured three times. The measurement conditions were as follows: 90° scattering angle, 25° C.

PDI [5] [%]	Particle size [5] [nm]	SMILES	Average radiation intensity, in vivo imaging ([1]; 6 h)	Average radiation intensity, in vivo imaging ([1]; 24 h)	Average radiation intensity, in vivo imaging ([1]; 48 h)	Average radiation intensity, in vivo imaging ([1]; 7 d)	Average radiation intensity of mouse organs: Heart [2]	Average radiation intensity of mouse organs: Kidney [2]	Average radiation intensity of mouse organs: Liver [2]	Average radiation intensity of mouse organs: Lung [2]	Average radiation intensity of mouse organs: Lymph [2]	Average radiation intensity of mouse organs: Spleen [2]	Cell viability [4] [%]	also measured
12.2	141	CCCCCCCCCCCCSSCCNC(=O)CCN1CCN(CCCCCC(=O)OCCC(CCCCCC)CCCCCC)CC1 [YK-506, reference compound]	1801233	257765	82221	34234	0	0	18913	0	0	71213	90	Relative light unit (RLU) ([3]; LNP with 0.3 μg Fluc-mRNA, 96-well plate, 24 hours): 654224 RLU
11.9	132	CCCCCCCCCCOC(=O)CCCN(CCCCCC(=O)OCCC(CCCCCC)CCCCCC)CCNC(CO)(CO)CCc1ccc(CCCCCCCC)cc1 [YK-909, 3-hexylnonyl 6-((4-(decyloxy)-4-oxobutyl) (2-((1-hydroxy-2-(hydroxymethyl)-4-(4-octylphenyl)butan-2-yl)amino)ethyl)amino) hexanoate]	12924543	1322432	576433	87433	0	0	9131	0	0	204435	92	Expression level of mRNA in the spleen, times that of SM-102 ([2]; spleen, 6 h, vs SM-102): 8.00 times; Expression level of mRNA in the spleen, times that of YK-501 ([2]; spleen, 6 h, vs YK-501): 14.37 times; Expression level of mRNA in the spleen, times that of YK-506 ([2]; spleen, 6 h, vs YK-506): 2.87 times; Cellular transfection efficiency, times that of HHMA ([3]; Fluc-mRNA LNP, vs HHMA): 6.71 times; Cellular transfection efficiency, times that of I-1 ([3]; Fluc-mRNA LNP, vs I-1): 33.44 times; Cellular transfection efficiency, times that of Lipofectamine 3000 ([3]; Fluc-mRNA LNP, vs Lipofectamine 3000): 8.05 times; Cellular transfection efficiency, times that of MC3 ([3]; Fluc-mRNA LNP, vs MC3): 71.44 times; Cellular transfection efficiency, times that of SM-102 ([3]; Fluc-mRNA LNP, vs SM-102): 4.75 times; Cellular transfection efficiency, times that of YK-501 ([3]; Fluc-mRNA LNP, vs YK-501): 146.62 times; Cellular transfection efficiency, times that of YK-506 ([3]; Fluc-mRNA LNP, vs YK-506): 10.36 times; Cellular transfection efficiency, times that of YK-906 ([3]; Fluc-mRNA LNP, vs YK-906): 246 times and 246.15 times; Cellular transfection efficiency, times that of compound 7 ([3]; Fluc-mRNA LNP, vs compound 7): 26.33 times; Cell viability higher than that of YK-906 ([4]; difference vs YK-906): 29%
